Reference: PMC12396409, “Screening and hit evaluation of a microbial metabolite library against the pathogenic Plasmodium falciparum and Toxoplasma gondii parasites” (International Journal for Parasitology: Drugs and Drug …, 2025)
Read-outs that look alike come from different tables or passages of the source.

Key:
[1] = test system: P. falciparum 3D7 parasites; assay: P. falciparum growth inhibition assay, 1-cycle (72 h treatment), SYBR DNA staining (library screen at 2 μg/mL and dose-response); assay type: cell-based, Plasmodium falciparum; conditions: 72 h; for activity at 2 µg/mL: Plasmodium falciparum
[2] = test system: T. gondii RH strain (RH-Tub-eYFP) tachyzoites; assay: microbe, parasite or virus in culture; assay type: cell-based, Toxoplasma gondii
[3] = test system: P. falciparum 3D7 parasites; assay: P. falciparum growth inhibition assay, 2-cycle (120 h treatment), delayed-death screen and dose-response; assay type: cell-based, Plasmodium falciparum; conditions: 120 h; for activity at 2 µg/mL: Plasmodium falciparum
[4] = library screen at 2 μg/mL, % growth, replicate 1
[5] = library screen at 2 μg/mL, % growth, replicate 2
[6] = library screen at 2 μg/mL, 72 h, % growth, replicate 1
[7] = library screen at 2 μg/mL, 72 h, % growth, replicate 2
[8] = P. falciparum, screen at 2 μg/mL, replicate 1
[9] = P. falciparum, screen at 2 μg/mL, replicate 2
[10] = T. gondii, 72 h, screen at 2 μg/mL, replicate 1
[11] = T. gondii, 72 h, screen at 2 μg/mL, replicate 2
[12] = P. falciparum, parasite screen 2 μg/mL, % growth, replicate 1
[13] = P. falciparum, parasite screen 2 μg/mL, % growth, replicate 2

## Bafilomycin D
[1]; [4]
  Pf_72h_%Growth_Rep1: 3.99%
[1]; [5]
  Pf_72h_%Growth_Rep2: 4.20%
[2]; [6]
  Tg_72h_%Growth_Rep1: 0.37%
[2]; [7]
  Tg_72h_%Growth_Rep2: -0.37%
[3]; [4]
  Pf_120h_%Growth_Rep1: 2.60%
[3]; [5]
  Pf_120h_%Growth_Rep2: -8.55%

## C[C@H]1CCCC(=O)CCC/C=C/c2cc(O)cc(O)c2C(=O)O1 [Zearalenone]
[1]; 3D7, P. falciparum, screen at 2 μg/mL, replicate 1, read-out: Pf_72h_%Growth_Rep1
  activity at 2 µg/mL: 89.4%
[1]; 3D7, P. falciparum, screen at 2 μg/mL, replicate 2, read-out: Pf_72h_%Growth_Rep2
  activity at 2 µg/mL: 99.7%
[2]; Toxoplasma gondii; T. gondii, 72 h, screen at 2 μg/mL, replicate 1; read-out: Tg_72h_%Growth_Rep1
  percent parasite growth at 2 µg/mL: 104%
[2]; Toxoplasma gondii; T. gondii, 72 h, screen at 2 μg/mL, replicate 2; read-out: Tg_72h_%Growth_Rep2
  percent parasite growth at 2 µg/mL: 74%
[3]; 3D7, P. falciparum, screen at 2 μg/mL, replicate 1, read-out: Pf_120h_%Growth_Rep1
  activity at 2 µg/mL: 88.9%
[3]; 3D7, P. falciparum, screen at 2 μg/mL, replicate 2, read-out: Pf_120h_%Growth_Rep2
  activity at 2 µg/mL: 64.3%

## N[C@H](CO)[C@H](O)c1ccc([N+](=O)[O-])cc1 [Chloramphenicol base]
[1]; [8]
  Pf_72h_%Growth_Rep1: 86.96%
[1]; [9]
  Pf_72h_%Growth_Rep2: 86.58%
[2]; [10]
  Tg_72h_%Growth_Rep1: 134.60%
[2]; [11]
  Tg_72h_%Growth_Rep2: 99.67%
[3]; [8]
  Pf_120h_%Growth_Rep1: 102.72%
[3]; [9]
  Pf_120h_%Growth_Rep2: 92.34%

## CCCCCCCCCCCC[C@@H](C(=O)O)[C@H](C)C(=O)O [Roccellic acid]
[1]; [12]
  Pf_72h_%Growth_Rep1: 81.49%
[1]; [13]
  Pf_72h_%Growth_Rep2: 118.80%
[2]; T. gondii, 72 h, parasite screen 2 μg/mL, % growth, replicate 1
  Tg_72h_%Growth_Rep1: 114.12%
[2]; T. gondii, 72 h, parasite screen 2 μg/mL, % growth, replicate 2
  Tg_72h_%Growth_Rep2: 89.45%
[3]; [12]
  Pf_120h_%Growth_Rep1: 69.96%
[3]; [13]
  Pf_120h_%Growth_Rep2: 129.33%

## C[C@@H]1CCCCCCCCC[C@H](OC(=O)CCC(=O)O)C(=O)/C=C/C(=O)O1 [A 26771B]
[1]; [4]
  Pf_72h_%Growth_Rep1: 82.59%
[1]; [5]
  Pf_72h_%Growth_Rep2: 86.99%
[2]; [6]
  Tg_72h_%Growth_Rep1: 90.42%
[2]; [7]
  Tg_72h_%Growth_Rep2: 102.55%
[3]; [4]
  Pf_120h_%Growth_Rep1: 86.96%
[3]; [5]
  Pf_120h_%Growth_Rep2: 89.23%

## Cc1cc(O)c(C=O)c2c1C(=O)Oc1c(COC(=O)/C=C/C(=O)O)c(O)c(C(=O)O)c(C)c1O2 [Fumarprotocetraric acid]
[1]; 3D7, library screen at 2 μg/mL, % growth, replicate 1, read-out: Pf_72h_%Growth_Rep1
  activity at 2 µg/mL: 84.6%
[1]; 3D7, library screen at 2 μg/mL, % growth, replicate 2, read-out: Pf_72h_%Growth_Rep2
  activity at 2 µg/mL: 90.2%
[2]; Toxoplasma gondii, 72 h, library screen at 2 μg/mL, 72 h, % growth, replicate 1; read-out: Tg_72h_%Growth_Rep1
  percent parasite growth at 2 µg/mL: 126%
[2]; Toxoplasma gondii, 72 h, library screen at 2 μg/mL, 72 h, % growth, replicate 2; read-out: Tg_72h_%Growth_Rep2
  percent parasite growth at 2 µg/mL: 103%
[3]; 3D7, library screen at 2 μg/mL, % growth, replicate 1, read-out: Pf_120h_%Growth_Rep1
  activity at 2 µg/mL: 102%
[3]; 3D7, library screen at 2 μg/mL, % growth, replicate 2, read-out: Pf_120h_%Growth_Rep2
  activity at 2 µg/mL: 100%

## O=C1NCc2nc3ccccc3c(=O)n2-c2ccccc21 [Sclerotigenin]
[1]; 3D7, P. falciparum, parasite screen 2 μg/mL, % growth, replicate 1, read-out: Pf_72h_%Growth_Rep1
  activity at 2 µg/mL: 90.7%
[1]; 3D7, P. falciparum, parasite screen 2 μg/mL, % growth, replicate 2, read-out: Pf_72h_%Growth_Rep2
  activity at 2 µg/mL: 89.5%
[2]; Toxoplasma gondii, 72 h, T. gondii, 72 h, parasite screen 2 μg/mL, % growth, replicate 1; read-out: Tg_72h_%Growth_Rep1
  percent parasite growth at 2 µg/mL: 82%
[2]; Toxoplasma gondii, 72 h, T. gondii, 72 h, parasite screen 2 μg/mL, % growth, replicate 2; read-out: Tg_72h_%Growth_Rep2
  percent parasite growth at 2 µg/mL: 103%
[3]; 3D7, P. falciparum, parasite screen 2 μg/mL, % growth, replicate 1, read-out: Pf_120h_%Growth_Rep1
  activity at 2 µg/mL: 169%
[3]; 3D7, P. falciparum, parasite screen 2 μg/mL, % growth, replicate 2, read-out: Pf_120h_%Growth_Rep2
  activity at 2 µg/mL: 96.5%

## Cn1ncnc2c(=O)n(C)c(=O)nc1-2 [Toxoflavin]
[1]; [8]
  Pf_72h_%Growth_Rep1: 6.97%
[1]; [9]
  Pf_72h_%Growth_Rep2: -1.92%
[2]; [10]
  Tg_72h_%Growth_Rep1: 3.96%
[2]; [11]
  Tg_72h_%Growth_Rep2: 6.88%
[3]; [8]
  Pf_120h_%Growth_Rep1: 16.11%
[3]; [9]
  Pf_120h_%Growth_Rep2: 20.32%

## O=C(N[C@H](CO)[C@H](O)c1ccc([N+](=O)[O-])cc1)C(Cl)Cl [Chloramphenicol]
[1]; 3D7, 72 h, P. falciparum, screen at 2 μg/mL, replicate 1, read-out: Pf_72h_%Growth_Rep1
  activity at 2 µg/mL: 85.8%
[1]; 3D7, 72 h, P. falciparum, screen at 2 μg/mL, replicate 2, read-out: Pf_72h_%Growth_Rep2
  activity at 2 µg/mL: 84.9%
[2]; Toxoplasma gondii, 72 h, T. gondii, 72 h, screen at 2 μg/mL, replicate 1; read-out: Tg_72h_%Growth_Rep1
  percent parasite growth at 2 µg/mL: 86.7%
[2]; Toxoplasma gondii, 72 h, T. gondii, 72 h, screen at 2 μg/mL, replicate 2; read-out: Tg_72h_%Growth_Rep2
  percent parasite growth at 2 µg/mL: 85.3%
[3]; 3D7, 120 h, P. falciparum, screen at 2 μg/mL, replicate 1, read-out: Pf_120h_%Growth_Rep1
  activity at 2 µg/mL: 117%
[3]; 3D7, 120 h, P. falciparum, screen at 2 μg/mL, replicate 2, read-out: Pf_120h_%Growth_Rep2
  activity at 2 µg/mL: 64.9%
